Reference: patent US20250099779A1, “DEVICE AND METHOD FOR REGULATING RELEASE OF ADENOSINE IN ORGANISM, AND USE” (WENZHOU VENTURA TECHNOLOGY CO., LTD., priority 2022, published 2025)
“Also recorded” adds a separate entry of the source.

Assays:
Assay type in all cases: in vivo
CD73-KO mice = test: Nocturnal movement activity after 40 Hz light flicker
Protocol: Thus, we speculated that the 40 Hz light flicker stimulus can regulate sleep rhythm. We firstly exposed the wild-type C57BL/6J mice to light flickers at different frequencies in the last 30 minutes of the daytime phase (19:30-20:00), and then monitored the nocturnal movement activity of the mice, thereby reflecting the sleep-wake states of the mice indirectly. […] We then intraperitoneally injected CD73-KO mice with the […] transporter inhibitor Dipyridamole (Dipyr) at 15 mg/kg. […] Meanwhile, we also intraperitoneally injected CD73-KO mice with the adenosine Al receptor activity antagonist 8-Cyclopentyl-1,3-dipropyl-1H-purine-2,6(3H,7H)-dione (DPCPX) at 6 mg/kg.

[1] = system: adenosine in the visual cortex (V1); test: UPLC detection of total adenosine concentration in the visual cortex of mice; conditions: mice visual cortex V1, Dipyridamole 6 mg/kg intraperitoneal, 30 min before illumination
Protocol: The total concentration of adenosine in the visual cortex of mice was detected by ultra-high performance liquid chromatography (which is reported including 95% extracellular adenosine and 5% intracellular adenosine in literature). Dipyridamole (Dipyr) (a 6 mg/kg adenosine transporter inhibitor) dissolved in 0.5% methylcellulose was intraperitoneally injected 30 minutes before illumination, while the control group was given 0.5% methylcellulose. 30 minutes after the injection, the blank control group and the Dipyridamole group were illuminated for 30 minutes by the light flicker stimulus with the illuminance of 3000 lux, the duty ratio of 50% and the strobe of 40 Hz (referred to as “40 Hz light flicker stimulus” hereinafter). After illumination, the materials were sampled, weighed and rapidly frozen in liquid nitrogen immediately. After the sample processing, the peak value at about 2.0 was detected on machine with reference to the parameters of the standard substance, and the area under the curve at this moment was taken as the concentration of adenosine in the sample. Finally, the concentration of adenosine was obtained after checking the sample quality and calibrating.

C57BL/6J mice = test: EEG/EMG sleep recording after adenosine microinjection into V1 visual cortex
Protocol: Adenosine was injected locally in the V1 cortex of mice to illustrate that the increase in the concentration of adenosine in the visual cortex could improve the sleep amount of mice. The administration cannulas were implanted in bilateral V1 brain regions of C57BL/6J mice, and the mice were placed in the sleep recording cage after about 10 days of surgical recovery. After 3 days of adaptation, the artificial cerebrospinal fluid (ACSF), adenosine of 1.5 nmol/side or adenosine 4.5 nmol/side was microinjected into the V1 visual cortex at the beginning of the dark phase on days 1, 4 and 7 (the administration order was random, and the injection volume was 2 μl/side), respectively; and the EEG/EMG of mice was recorded.

[2] = 4.5 nmol/side microinjected into V1, mice

OCCN(CCO)c1nc(N2CCCCC2)c2nc(N(CCO)CCO)nc(N3CCCCC3)c2n1 [Dipyridamole]
movement inhibition effect induced by the 40 Hz light flicker (CD73-KO mice; 15 mg/kg intraperitoneal, 15 mg/kg): blocks the movement inhibition effect; also recorded: completely disappeared | total concentration of intracellular and extracellular adenosine [1]: effectively inhibit

Nc1ncnc2c1ncn2[C@@H]1O[C@H](CO)[C@@H](O)[C@H]1O [adenosine]
sleep amount compared to the control group (ACSF) (C57BL/6J mice; 1.5 nmol/side microinjected into V1, mice): tendency to promote sleep but no significant difference | amount of the non-rapid eye movement sleep in the dark phase (C57BL/6J mice; [2]): 3 h | non-rapid eye movement sleep amount compared to the control group (ACSF) (C57BL/6J mice; [2]): significantly increases | total sleep amount of mice (C57BL/6J mice; adenosine injection into the visual cortex, 1.5 and 4.5 nmol/side): concentration-dependent increase

CCCn1c(=O)c2[nH]c(C3CCCC3)nc2n(CCC)c1=O [DPCPX, 8-Cyclopentyl-1,3-dipropyl-1H-purine-2,6(3H,7H)-dione]
movement inhibition effect caused by the 40 Hz light flicker (CD73-KO mice; 6 mg/kg intraperitoneal, 6 mg/kg): block the movement inhibition effect
